Data published in ChEMBL document CHEMBL1143301, “Novel HDAC6 isoform selective chiral small molecule histone deacetylase inhibitors” (Bioorg Med Chem Lett, 2009).
Activity calls are given as the source filed them. The rule behind the calls is not given here.

Key:
Homo sapiens [1] = organism: Homo sapiens; test: Selectivity ratio of IC50 for human recombinant histone deacetylase 2 to IC50 for human recombinant histone deacetylase 6
T-24 [2] = test: Induction of alpha tubulin acetylation in human T24 cells; assay type: functional, cell-based
Homo sapiens [3] = organism: Homo sapiens; test: Selectivity ratio of IC50 for human recombinant histone deacetylase 8 to IC50 for human recombinant histone deacetylase 6
Histone deacetylase 2 = Histone deacetylase 2 (Homo sapiens, UniProt Q92769)
Description: Inhibition of human recombinant histone deacetylase 2

Histone deacetylase 8 = molecular target: T1, Histone deacetylase 8 (Homo sapiens, UniProt Q9BY41); test: Inhibition of human recombinant histone deacetylase 8
T1 sequence (Q9BY41 whole entry): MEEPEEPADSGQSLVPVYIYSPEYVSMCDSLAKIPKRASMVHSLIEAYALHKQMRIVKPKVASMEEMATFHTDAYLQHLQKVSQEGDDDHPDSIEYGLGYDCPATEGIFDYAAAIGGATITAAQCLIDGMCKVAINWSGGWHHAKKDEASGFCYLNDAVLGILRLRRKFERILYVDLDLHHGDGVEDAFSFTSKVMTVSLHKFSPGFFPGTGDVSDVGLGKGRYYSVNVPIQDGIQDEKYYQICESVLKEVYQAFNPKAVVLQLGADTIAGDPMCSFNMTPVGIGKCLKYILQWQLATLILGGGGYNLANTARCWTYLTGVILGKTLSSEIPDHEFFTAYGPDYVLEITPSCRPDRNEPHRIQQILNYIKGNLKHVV

T-24 [4] = test: Induction of histone H3 acetylation in human T24 cells; assay type: functional, cell-based
[5] = molecular target: T2, Protein deacetylase HDAC6 (Homo sapiens, UniProt Q9UBN7)
T2 sequence (Q9UBN7 whole entry): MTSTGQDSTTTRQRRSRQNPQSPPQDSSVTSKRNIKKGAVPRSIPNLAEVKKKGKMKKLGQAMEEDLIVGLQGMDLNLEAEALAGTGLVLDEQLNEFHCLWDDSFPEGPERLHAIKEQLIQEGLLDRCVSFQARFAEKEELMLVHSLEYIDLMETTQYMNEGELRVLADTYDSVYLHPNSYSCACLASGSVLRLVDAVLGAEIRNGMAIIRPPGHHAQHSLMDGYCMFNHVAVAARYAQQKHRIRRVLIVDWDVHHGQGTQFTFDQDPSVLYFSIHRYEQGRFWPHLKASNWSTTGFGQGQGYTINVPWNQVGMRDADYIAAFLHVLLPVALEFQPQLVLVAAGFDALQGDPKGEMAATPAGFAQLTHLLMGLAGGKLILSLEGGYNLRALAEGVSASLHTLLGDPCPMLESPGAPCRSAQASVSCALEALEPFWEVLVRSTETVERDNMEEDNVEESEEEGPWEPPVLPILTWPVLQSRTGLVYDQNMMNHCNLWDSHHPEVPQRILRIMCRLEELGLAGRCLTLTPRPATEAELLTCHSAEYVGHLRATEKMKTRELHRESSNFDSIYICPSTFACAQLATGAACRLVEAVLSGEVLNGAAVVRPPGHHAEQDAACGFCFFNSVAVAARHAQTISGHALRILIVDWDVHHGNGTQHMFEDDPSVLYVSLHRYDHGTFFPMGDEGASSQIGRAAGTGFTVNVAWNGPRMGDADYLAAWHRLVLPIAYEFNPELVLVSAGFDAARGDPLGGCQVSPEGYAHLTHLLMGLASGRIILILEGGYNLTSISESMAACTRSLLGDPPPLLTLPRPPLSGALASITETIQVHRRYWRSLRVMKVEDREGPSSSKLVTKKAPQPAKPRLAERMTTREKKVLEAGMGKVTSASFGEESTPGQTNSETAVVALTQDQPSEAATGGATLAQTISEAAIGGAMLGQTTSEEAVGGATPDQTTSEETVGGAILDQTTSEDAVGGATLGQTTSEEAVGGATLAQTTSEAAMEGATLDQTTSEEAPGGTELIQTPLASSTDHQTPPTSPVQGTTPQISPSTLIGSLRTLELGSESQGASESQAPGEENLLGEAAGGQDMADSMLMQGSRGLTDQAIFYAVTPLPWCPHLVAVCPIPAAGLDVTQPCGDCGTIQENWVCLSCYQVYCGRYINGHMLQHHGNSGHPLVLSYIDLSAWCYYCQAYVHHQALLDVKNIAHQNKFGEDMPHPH
Description: Inhibition of human recombinant histone deacetylase 6

T-24 [6] = test: Selectivity ratio of EC50 for histone H3 acetylation to EC50 for alpha-tubulin acetylation in human T24 cells
T-24 [7] = test: Induction of alpha tubulin acetylation in human T24 cells at 1 uM preincubated 16 hrs before whole-cell lysate by Western blot analysis; assay type: functional, cell-based

Sequence of Histone deacetylase 2 (Q92769 whole entry): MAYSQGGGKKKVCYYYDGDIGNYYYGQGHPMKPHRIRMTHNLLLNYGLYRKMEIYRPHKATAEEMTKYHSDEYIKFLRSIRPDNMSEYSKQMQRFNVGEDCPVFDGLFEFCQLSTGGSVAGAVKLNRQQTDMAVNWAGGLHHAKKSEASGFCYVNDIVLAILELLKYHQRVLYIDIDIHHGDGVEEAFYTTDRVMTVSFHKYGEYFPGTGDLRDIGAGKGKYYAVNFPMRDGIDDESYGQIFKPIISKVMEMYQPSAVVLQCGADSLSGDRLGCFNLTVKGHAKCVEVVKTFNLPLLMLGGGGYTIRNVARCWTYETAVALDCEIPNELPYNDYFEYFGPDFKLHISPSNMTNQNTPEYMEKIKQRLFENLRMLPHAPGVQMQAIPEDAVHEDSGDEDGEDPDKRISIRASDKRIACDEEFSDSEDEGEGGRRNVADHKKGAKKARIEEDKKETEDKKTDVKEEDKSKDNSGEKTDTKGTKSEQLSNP

SMILES | Ratio IC50 (Homo sapiens [1]) | EC50 (T-24 [2]) [nM] | Ratio IC50 (Homo sapiens [3]) | IC50 (Histone deacetylase 2) [nM] | IC50 (Histone deacetylase 8) [nM] | EC50 (T-24 [4]) [nM] | IC50 [5] [nM] | Selectivity Index (T-24 [6]) | Activity (T-24 [7]) | Ratio EC50 (T-24 [6])
O=C(NO)c1ccc(CN2C(=O)CNC(=O)[C@H]2Cc2cccs2)cc1 | 22 | 2000 | 3 | 3470 | 440 | 9000 | 160 | – | – | –
O=C(NO)c1ccc(CN2c3ccccc3NC(=O)[C@H]2Cc2cccs2)cc1 | 21 | 70 | 17 | 870 | 690 | 1220 | 40 | >13 | Active | –
CC(/C=C/C(=O)NO)=C\[C@@H](C)C(=O)c1ccc(N(C)C)cc1 (racemic) [TRICHOSTATIN] | – | 10 | – | – | – | 10 | – | – | – | –
O=C(NO)c1ccc(CN2c3ccccc3NC(=O)[C@H]2Cc2ccccc2)cc1 | 26 | 40 | 53 | 260 | 530 | 520 | 10 | >13 | – | –
O=C(NO)c1ccc(CN2C(=O)CNC(=O)[C@H]2Cc2ccccc2)cc1 | 33 | 1490 | 14 | 5540 | 2340 | 23000 | 170 | >13 | – | –
O=C(CCCCCCC(=O)Nc1ccc([C@H]2O[C@@H](CSc3nc(-c4ccccc4)c(-c4ccccc4)o3)C[C@@H](c3ccc(CO)cc3)O2)cc1)NO [TUBACIN] | – | – | – | – | – | – | – | 75 | – | –
O=C1CN(Cc2ccc(C(=O)NO)cc2)c2ccccc2N1 | 4 | 1010 | 3 | 560 | 520 | 3580 | 150 | – | – | –
CC(C)(C)OC(=O)NCCCC[C@@H]1C(=O)Nc2ccccc2N1Cc1ccc(C(=O)NO)cc1 | 34 | 90 | 27 | 1480 | 1150 | 6750 | 40 | – | – | 75
O=C(NO)c1ccc(CN2c3ccccc3NC(=O)[C@H]2Cc2ccc(F)c(F)c2)cc1 | 11 | – | 10 | 460 | 420 | – | 40 | – | – | –
CC(C)(C)Oc1ccc(C[C@@H]2C(=O)Nc3ccccc3N2Cc2ccc(C(=O)NO)cc2)cc1 | 28 | 80 | 5 | 1440 | 250 | 2750 | 50 | >13 | – | –
O=C(NO)c1ccc(CN2c3ccccc3NC(=O)[C@@H]2Cc2ccccc2)cc1 | 2 | 320 | 1 | 460 | 210 | 1900 | 220 | – | – | –
O=C(NO)c1ccc(CN2c3ccccc3NC(=O)[C@H]2CCc2ccccc2)cc1 | 40 | – | 49 | 520 | 640 | – | 10 | – | – | –
O=C(NO)c1ccc(CN2C(=O)CNC(=O)[C@H]2Cc2c[nH]c3ccccc23)cc1 | 17 | 2870 | 11 | 1810 | 1210 | 12100 | 110 | – | – | –
O=C(NO)c1ccc(CN2c3ccccc3NC(=O)[C@@H]2Cc2cccs2)cc1 | 5 | 230 | 4 | 1480 | 1190 | 2300 | 310 | – | – | –
O=C(NO)c1ccc(CN2c3ccccc3NC(=O)[C@H]2Cc2ccc(O)cc2)cc1 | 41 | – | 91 | 330 | 730 | – | 10 | – | – | –
